Assay results published in US20030105595A1, “Chi square tests for gene expression” (priority 2001, published 2003).

Tests used:
Assay in all cases: multi-sample expression analysis, band intensity
Format in all cases: in vivo
Conditions in all cases: Pooled
band b1i0_57.4 = test system: band b1i0_57.4
Source text: (§1) To practice the invention, one skilled in the art obtains a source of biological samples, as well as expression information about the biological samples, i.e., expression information relative to one or more genes or polypeptides encoded therein. Data is collected for a particular phenotype appearing within a given population under study, whereby expression of that phenotype is to be determined within the biological sample under study. The phenotype is correlated to a specific genotype, which is then represented as a band with a given intentity, thus indicative of gene expression levels, and is then compared to control samples. Alternatively, the response of a gene to dosage with one or more drugs is determined by band intensity. The standard deviation from the mean (StdDev) is calculated for the control samples, and is fit to functional form in the following equation: […]
(§2) A multi-sample expression analysis was run using the program described in Example 1. For each drug run, only runs for genes producing bands with a p-value<10^−5 in at least 2 of the following 3 comparisons were selected: low dose versus vehicle, high dose versus vehicle and low dose versus high dose. […] Since clusters found using all 13K bands included some of the best 2K bands, it was concluded that no essential signal was lost (see FIGS. 3 and 4). […] A comparison using the same analytic tests on only the best 2K bands. It can be seen that the Chi Square metric provides a better distinction between low and high doses than the correlation metric, which is not able to distinguish between the low dose and the high dose (see FIG. 6). The low-dose/high dose statistical variation is more pronounced when only the best 2K bands are selected.

band b1i0_54.5 = test system: band b1i0_54.5
Source text: as §1, §2

band b1i0_60.7 = test system: band b1i0_60.7
Source text: as §1, §2

band b1i0_69.4 = test system: band b1i0_69.4
Source text: as §1, §2

band b1i0_51.7 = test system: band b1i0_51.7
Source text: as §1, §2

band b1i0_63.7 = test system: band b1i0_63.7
Source text: as §1, §2

band b1i0_53.0 = test system: band b1i0_53.0
Source text: as §1, §2

band b1i0_62.5 = test system: band b1i0_62.5
Source text: as §1, §2

Molecule: Nc1ccc(Cc2ccc(N)cc2)cc1 [Methylenedianiline]
- band intensity b1i0_57.4 (band b1i0_57.4; High dose, 1d): 1230
- band intensity b1i0_57.4 (band b1i0_57.4; High dose, 3d): 1407
- band intensity b1i0_57.4 (band b1i0_57.4; High dose, 7d): 1184
- band intensity b1i0_57.4 (band b1i0_57.4; High dose, 14d): 455.9
- band intensity b1i0_57.4 (band b1i0_57.4; Low dose, 1d): 1376
- band intensity b1i0_57.4 (band b1i0_57.4; Low dose, 3d): 1433
- band intensity b1i0_57.4 (band b1i0_57.4; Low dose, 7d): 1280
- band intensity b1i0_57.4 (band b1i0_57.4; Low dose, 14d): 789.2
- band intensity b1i0_54.5 (band b1i0_54.5; High dose, 1d): 104.9
- band intensity b1i0_54.5 (band b1i0_54.5; High dose, 3d): 106
- band intensity b1i0_54.5 (band b1i0_54.5; High dose, 7d): 82.18
- band intensity b1i0_54.5 (band b1i0_54.5; High dose, 14d): 51.09
- band intensity b1i0_54.5 (band b1i0_54.5; Low dose, 1d): 123.7
- band intensity b1i0_54.5 (band b1i0_54.5; Low dose, 3d): 111.4
- band intensity b1i0_54.5 (band b1i0_54.5; Low dose, 7d): 86.49
- band intensity b1i0_54.5 (band b1i0_54.5; Low dose, 14d): 62.55
- band intensity b1i0_60.7 (band b1i0_60.7; High dose, 1d): 67.13
- band intensity b1i0_60.7 (band b1i0_60.7; High dose, 3d): 85.72
- band intensity b1i0_60.7 (band b1i0_60.7; High dose, 7d): 82.44
- band intensity b1i0_60.7 (band b1i0_60.7; High dose, 14d): 158.3
- band intensity b1i0_60.7 (band b1i0_60.7; Low dose, 1d): 66.66
- band intensity b1i0_60.7 (band b1i0_60.7; Low dose, 3d): 78.99
- band intensity b1i0_60.7 (band b1i0_60.7; Low dose, 7d): 79.32
- band intensity b1i0_60.7 (band b1i0_60.7; Low dose, 14d): 139.6
- band intensity b1i0_69.4 (band b1i0_69.4; High dose, 1d): 262.2
- band intensity b1i0_69.4 (band b1i0_69.4; High dose, 3d): 329.9
- band intensity b1i0_69.4 (band b1i0_69.4; High dose, 7d): 290.2061
- band intensity b1i0_69.4 (band b1i0_69.4; High dose, 14d): 512.9
- band intensity b1i0_69.4 (band b1i0_69.4; Low dose, 1d): 349.4
- band intensity b1i0_69.4 (band b1i0_69.4; Low dose, 3d): 349.3
- band intensity b1i0_69.4 (band b1i0_69.4; Low dose, 7d): 303.1
- band intensity b1i0_69.4 (band b1i0_69.4; Low dose, 14d): 714.8
- band intensity b1i0_51.7 (band b1i0_51.7; High dose, 1d): 23.55
- band intensity b1i0_51.7 (band b1i0_51.7; High dose, 3d): 27.88
- band intensity b1i0_51.7 (band b1i0_51.7; High dose, 7d): 23.35
- band intensity b1i0_51.7 (band b1i0_51.7; High dose, 14d): 33.18
- band intensity b1i0_51.7 (band b1i0_51.7; Low dose, 1d): 22.28
- band intensity b1i0_51.7 (band b1i0_51.7; Low dose, 3d): 27.01
- band intensity b1i0_51.7 (band b1i0_51.7; Low dose, 7d): 21.37
- band intensity b1i0_51.7 (band b1i0_51.7; Low dose, 14d): 71.33
- band intensity b1i0_63.7 (band b1i0_63.7; High dose, 1d): 85.1
- band intensity b1i0_63.7 (band b1i0_63.7; High dose, 3d): 153.8
- band intensity b1i0_63.7 (band b1i0_63.7; High dose, 7d): 144.3
- band intensity b1i0_63.7 (band b1i0_63.7; High dose, 14d): 2.073
- band intensity b1i0_63.7 (band b1i0_63.7; Low dose, 1d): 24.89
- band intensity b1i0_63.7 (band b1i0_63.7; Low dose, 3d): 84.1
- band intensity b1i0_63.7 (band b1i0_63.7; Low dose, 7d): 287.2
- band intensity b1i0_63.7 (band b1i0_63.7; Low dose, 14d): 0.3527
- band intensity b1i0_53.0 (band b1i0_53.0; High dose, 1d): 101.1
- band intensity b1i0_53.0 (band b1i0_53.0; High dose, 3d): 98.11
- band intensity b1i0_53.0 (band b1i0_53.0; High dose, 7d): 113.8
- band intensity b1i0_53.0 (band b1i0_53.0; High dose, 14d): 60.92
- band intensity b1i0_53.0 (band b1i0_53.0; Low dose, 1d): 103.4
- band intensity b1i0_53.0 (band b1i0_53.0; Low dose, 3d): 101.1
- band intensity b1i0_53.0 (band b1i0_53.0; Low dose, 7d): 111.5
- band intensity b1i0_53.0 (band b1i0_53.0; Low dose, 14d): 55.87
- band intensity b1i0_62.5 (band b1i0_62.5; High dose, 1d): 59.42
- band intensity b1i0_62.5 (band b1i0_62.5; High dose, 3d): 70.64
- band intensity b1i0_62.5 (band b1i0_62.5; High dose, 7d): 71.55
- band intensity b1i0_62.5 (band b1i0_62.5; High dose, 14d): 185.7
- band intensity b1i0_62.5 (band b1i0_62.5; Low dose, 1d): 63.43
- band intensity b1i0_62.5 (band b1i0_62.5; Low dose, 3d): 69.92
- band intensity b1i0_62.5 (band b1i0_62.5; Low dose, 7d): 86.01
- band intensity b1i0_62.5 (band b1i0_62.5; Low dose, 14d): 207.6

Molecule: Dichlorobenzene
- band intensity b1i0_57.4 (band b1i0_57.4; High dose, 1d): 1260
- band intensity b1i0_57.4 (band b1i0_57.4; High dose, 3d): 1064
- band intensity b1i0_57.4 (band b1i0_57.4; High dose, 7d): 1287
- band intensity b1i0_57.4 (band b1i0_57.4; High dose, 14d): 1142
- band intensity b1i0_57.4 (band b1i0_57.4; Low dose, 1d): 1301
- band intensity b1i0_57.4 (band b1i0_57.4; Low dose, 3d): 1352
- band intensity b1i0_57.4 (band b1i0_57.4; Low dose, 7d): 1298
- band intensity b1i0_57.4 (band b1i0_57.4; Low dose, 14d): 1338
- band intensity b1i0_54.5 (band b1i0_54.5; High dose, 1d): 91.99
- band intensity b1i0_54.5 (band b1i0_54.5; High dose, 3d): 89.82
- band intensity b1i0_54.5 (band b1i0_54.5; High dose, 7d): 80.92
- band intensity b1i0_54.5 (band b1i0_54.5; High dose, 14d): 84.91
- band intensity b1i0_54.5 (band b1i0_54.5; Low dose, 1d): 88.39
- band intensity b1i0_54.5 (band b1i0_54.5; Low dose, 3d): 128.4
- band intensity b1i0_54.5 (band b1i0_54.5; Low dose, 7d): 88.11
- band intensity b1i0_54.5 (band b1i0_54.5; Low dose, 14d): 101.4
- band intensity b1i0_60.7 (band b1i0_60.7; High dose, 1d): 79.94
- band intensity b1i0_60.7 (band b1i0_60.7; High dose, 3d): 62.13
- band intensity b1i0_60.7 (band b1i0_60.7; High dose, 7d): 77.87
- band intensity b1i0_60.7 (band b1i0_60.7; High dose, 14d): 82.42
- band intensity b1i0_60.7 (band b1i0_60.7; Low dose, 1d): 95.98
- band intensity b1i0_60.7 (band b1i0_60.7; Low dose, 3d): 58.61
- band intensity b1i0_60.7 (band b1i0_60.7; Low dose, 7d): 74.81
- band intensity b1i0_60.7 (band b1i0_60.7; Low dose, 14d): 94.46
- band intensity b1i0_69.4 (band b1i0_69.4; High dose, 1d): 295.5
- band intensity b1i0_69.4 (band b1i0_69.4; High dose, 3d): 393.2
- band intensity b1i0_69.4 (band b1i0_69.4; High dose, 7d): 261.7
- band intensity b1i0_69.4 (band b1i0_69.4; High dose, 14d): 311.3
- band intensity b1i0_69.4 (band b1i0_69.4; Low dose, 1d): 130.6
- band intensity b1i0_69.4 (band b1i0_69.4; Low dose, 3d): 334.6
- band intensity b1i0_69.4 (band b1i0_69.4; Low dose, 7d): 304.3
- band intensity b1i0_69.4 (band b1i0_69.4; Low dose, 14d): 333.2913
- band intensity b1i0_51.7 (band b1i0_51.7; High dose, 1d): 27.84
- band intensity b1i0_51.7 (band b1i0_51.7; High dose, 3d): 10.75
- band intensity b1i0_51.7 (band b1i0_51.7; High dose, 7d): 16.63
- band intensity b1i0_51.7 (band b1i0_51.7; High dose, 14d): 21.77
- band intensity b1i0_51.7 (band b1i0_51.7; Low dose, 1d): 28.93
- band intensity b1i0_51.7 (band b1i0_51.7; Low dose, 3d): 26.06
- band intensity b1i0_51.7 (band b1i0_51.7; Low dose, 7d): 16.57
- band intensity b1i0_51.7 (band b1i0_51.7; Low dose, 14d): 23.43
- band intensity b1i0_63.7 (band b1i0_63.7; High dose, 1d): 129
- band intensity b1i0_63.7 (band b1i0_63.7; High dose, 3d): 5.698
- band intensity b1i0_63.7 (band b1i0_63.7; High dose, 7d): 224.3
- band intensity b1i0_63.7 (band b1i0_63.7; High dose, 14d): 157.7
- band intensity b1i0_63.7 (band b1i0_63.7; Low dose, 1d): 166.2
- band intensity b1i0_63.7 (band b1i0_63.7; Low dose, 3d): 24.94
- band intensity b1i0_63.7 (band b1i0_63.7; Low dose, 7d): 258.8
- band intensity b1i0_63.7 (band b1i0_63.7; Low dose, 14d): 152.1
- band intensity b1i0_53.0 (band b1i0_53.0; High dose, 1d): 103.4
- band intensity b1i0_53.0 (band b1i0_53.0; High dose, 3d): 48.52
- band intensity b1i0_53.0 (band b1i0_53.0; High dose, 7d): 99.66
- band intensity b1i0_53.0 (band b1i0_53.0; High dose, 14d): 95.42
- band intensity b1i0_53.0 (band b1i0_53.0; Low dose, 1d): 127.1
- band intensity b1i0_53.0 (band b1i0_53.0; Low dose, 3d): 71.53
- band intensity b1i0_53.0 (band b1i0_53.0; Low dose, 7d): 113.8
- band intensity b1i0_53.0 (band b1i0_53.0; Low dose, 14d): 116.4
- band intensity b1i0_62.5 (band b1i0_62.5; High dose, 1d): 68.45
- band intensity b1i0_62.5 (band b1i0_62.5; High dose, 3d): 97.82
- band intensity b1i0_62.5 (band b1i0_62.5; High dose, 7d): 76.86
- band intensity b1i0_62.5 (band b1i0_62.5; High dose, 14d): 64.49
- band intensity b1i0_62.5 (band b1i0_62.5; Low dose, 1d): 73.54
- band intensity b1i0_62.5 (band b1i0_62.5; Low dose, 3d): 76.31
- band intensity b1i0_62.5 (band b1i0_62.5; Low dose, 7d): 88.91
- band intensity b1i0_62.5 (band b1i0_62.5; Low dose, 14d): 68.64
